Reference: patent US8263606B2 (Xenon Pharmaceuticals Inc., priority 2008, dated 2012)

How the values were obtained:
sodium channel = experiment: Guanidine influx assay (14C-guanidine radiotracer flux, in vitro); type: cell-based, human or rat; settings: guanidine influx assay using a known cell line that expresses a sodium channel
Summary of the method: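 Test agents at half-step dilutions around 1 μM are added to plated cells in low-sodium HEPES buffer, then an aconitine/14C-guanidine mixture; after ambient-temperature incubation, cells are washed and counted. IC50 comes from a sigmoidal fit.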

[1] = test system: inactivated state of the channel of interest (sodium channel); experiment: Electrophysiological assay (whole cell voltage clamp, in vitro); type: cell-based; settings: affinity for the inactivated state of the channel of interest
Summary of the method: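 Whole-cell voltage clamp at ambient temperature on stably transfected cells; CsF-based pipette, pH 7.4 NaCl bath. Current blockade measured at holding potentials of −120 mV (resting, Kr) and one giving 10% availability (inactivated, Ki), held ≥10 s to equilibrate; apparent Kd calculated from fractional block.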

CYP3A4 = CYP3A4 (Homo sapiens, UniProt P08684); experiment: Cytochrome P450 (CYP450) Inhibition Assay, CYP3A4 (Vivid fluorescence, BOMCC substrate); settings: human, P450 Baculosomes (recombinant CYP3A4), probe BOMCC (Vivid substrate)
Nav1.4 = Nav1.4 (Cricetulus griseus, UniProt A0A9J7H6F9); type: cell-based, Chinese Hamster
Nav1.4 and 1.5 = type: cell-based, rat
Nav1.9 and Nav1.7 = type: cell-based, Human
Nav1.8 = Nav1.8 (Homo sapiens, UniProt Q9Y5Y9); type: cell-based
Nav1.2 = Nav1.2 (Rattus norvegicus, UniProt P04775)
[2] = rat; intravenous application; concentrations that do not affect general behaviour and motor function; cited from earlier work

CYP3A4, sequence (P08684 whole entry): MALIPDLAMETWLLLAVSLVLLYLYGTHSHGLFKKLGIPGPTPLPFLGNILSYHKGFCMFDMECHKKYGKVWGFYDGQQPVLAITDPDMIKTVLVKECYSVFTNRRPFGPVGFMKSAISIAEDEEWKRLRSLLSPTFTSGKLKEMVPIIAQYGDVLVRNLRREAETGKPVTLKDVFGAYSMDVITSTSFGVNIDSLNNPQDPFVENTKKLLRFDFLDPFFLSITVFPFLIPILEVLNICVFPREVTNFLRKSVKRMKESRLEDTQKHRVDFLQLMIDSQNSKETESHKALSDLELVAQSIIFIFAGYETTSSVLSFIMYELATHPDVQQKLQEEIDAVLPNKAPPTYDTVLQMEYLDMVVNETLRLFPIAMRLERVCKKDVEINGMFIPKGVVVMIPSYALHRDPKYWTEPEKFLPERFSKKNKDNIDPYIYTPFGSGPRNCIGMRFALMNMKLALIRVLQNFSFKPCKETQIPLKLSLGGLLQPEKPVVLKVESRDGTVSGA
Nav1.4, sequence (A0A9J7H6F9 1-1930): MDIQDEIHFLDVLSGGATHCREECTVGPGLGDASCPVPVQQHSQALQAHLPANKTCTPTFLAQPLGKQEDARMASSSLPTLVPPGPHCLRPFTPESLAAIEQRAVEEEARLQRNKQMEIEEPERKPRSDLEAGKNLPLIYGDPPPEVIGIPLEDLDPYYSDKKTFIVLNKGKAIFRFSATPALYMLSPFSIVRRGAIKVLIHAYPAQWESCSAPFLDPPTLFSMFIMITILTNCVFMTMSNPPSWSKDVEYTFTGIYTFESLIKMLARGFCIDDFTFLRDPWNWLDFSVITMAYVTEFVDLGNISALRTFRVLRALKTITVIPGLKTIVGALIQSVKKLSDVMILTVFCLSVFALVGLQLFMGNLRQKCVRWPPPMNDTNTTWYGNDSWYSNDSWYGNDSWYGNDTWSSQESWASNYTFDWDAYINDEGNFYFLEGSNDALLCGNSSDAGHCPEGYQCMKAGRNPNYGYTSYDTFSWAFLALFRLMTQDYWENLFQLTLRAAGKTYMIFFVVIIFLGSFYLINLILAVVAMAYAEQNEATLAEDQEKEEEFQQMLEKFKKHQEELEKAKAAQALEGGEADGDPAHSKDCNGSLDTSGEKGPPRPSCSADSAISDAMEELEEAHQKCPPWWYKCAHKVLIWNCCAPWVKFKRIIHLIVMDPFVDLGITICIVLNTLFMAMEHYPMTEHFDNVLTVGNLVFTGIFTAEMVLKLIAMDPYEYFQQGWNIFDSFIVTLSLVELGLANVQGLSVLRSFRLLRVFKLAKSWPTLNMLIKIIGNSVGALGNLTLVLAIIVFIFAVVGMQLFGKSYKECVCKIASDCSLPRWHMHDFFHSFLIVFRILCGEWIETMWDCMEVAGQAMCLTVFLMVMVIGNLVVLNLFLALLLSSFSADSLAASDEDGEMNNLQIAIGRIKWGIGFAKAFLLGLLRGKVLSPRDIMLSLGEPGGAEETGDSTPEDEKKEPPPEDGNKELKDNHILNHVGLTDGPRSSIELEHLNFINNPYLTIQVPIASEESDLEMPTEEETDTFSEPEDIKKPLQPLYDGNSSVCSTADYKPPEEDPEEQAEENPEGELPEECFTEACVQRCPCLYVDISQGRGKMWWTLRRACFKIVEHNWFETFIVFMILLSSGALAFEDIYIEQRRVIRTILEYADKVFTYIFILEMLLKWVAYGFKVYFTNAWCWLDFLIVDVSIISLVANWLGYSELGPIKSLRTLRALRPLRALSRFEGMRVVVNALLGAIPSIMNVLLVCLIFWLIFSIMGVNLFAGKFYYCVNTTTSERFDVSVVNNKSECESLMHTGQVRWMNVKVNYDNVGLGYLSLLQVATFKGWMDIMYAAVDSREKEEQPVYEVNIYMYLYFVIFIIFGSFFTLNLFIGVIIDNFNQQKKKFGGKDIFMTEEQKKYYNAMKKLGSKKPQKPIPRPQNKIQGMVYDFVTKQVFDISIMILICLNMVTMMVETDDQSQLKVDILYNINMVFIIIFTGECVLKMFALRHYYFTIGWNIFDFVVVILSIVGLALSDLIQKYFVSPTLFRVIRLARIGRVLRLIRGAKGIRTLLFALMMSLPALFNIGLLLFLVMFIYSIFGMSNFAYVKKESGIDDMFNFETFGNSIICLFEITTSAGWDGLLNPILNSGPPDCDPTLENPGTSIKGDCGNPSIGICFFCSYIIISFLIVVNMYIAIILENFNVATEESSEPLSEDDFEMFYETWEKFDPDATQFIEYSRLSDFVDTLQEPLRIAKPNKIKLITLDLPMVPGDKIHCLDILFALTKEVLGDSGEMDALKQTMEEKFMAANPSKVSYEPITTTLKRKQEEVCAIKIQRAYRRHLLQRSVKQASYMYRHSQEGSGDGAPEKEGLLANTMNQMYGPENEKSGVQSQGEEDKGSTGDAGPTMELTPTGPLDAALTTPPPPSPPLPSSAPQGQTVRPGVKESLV
Nav1.2, sequence (P04775 whole entry, looked up): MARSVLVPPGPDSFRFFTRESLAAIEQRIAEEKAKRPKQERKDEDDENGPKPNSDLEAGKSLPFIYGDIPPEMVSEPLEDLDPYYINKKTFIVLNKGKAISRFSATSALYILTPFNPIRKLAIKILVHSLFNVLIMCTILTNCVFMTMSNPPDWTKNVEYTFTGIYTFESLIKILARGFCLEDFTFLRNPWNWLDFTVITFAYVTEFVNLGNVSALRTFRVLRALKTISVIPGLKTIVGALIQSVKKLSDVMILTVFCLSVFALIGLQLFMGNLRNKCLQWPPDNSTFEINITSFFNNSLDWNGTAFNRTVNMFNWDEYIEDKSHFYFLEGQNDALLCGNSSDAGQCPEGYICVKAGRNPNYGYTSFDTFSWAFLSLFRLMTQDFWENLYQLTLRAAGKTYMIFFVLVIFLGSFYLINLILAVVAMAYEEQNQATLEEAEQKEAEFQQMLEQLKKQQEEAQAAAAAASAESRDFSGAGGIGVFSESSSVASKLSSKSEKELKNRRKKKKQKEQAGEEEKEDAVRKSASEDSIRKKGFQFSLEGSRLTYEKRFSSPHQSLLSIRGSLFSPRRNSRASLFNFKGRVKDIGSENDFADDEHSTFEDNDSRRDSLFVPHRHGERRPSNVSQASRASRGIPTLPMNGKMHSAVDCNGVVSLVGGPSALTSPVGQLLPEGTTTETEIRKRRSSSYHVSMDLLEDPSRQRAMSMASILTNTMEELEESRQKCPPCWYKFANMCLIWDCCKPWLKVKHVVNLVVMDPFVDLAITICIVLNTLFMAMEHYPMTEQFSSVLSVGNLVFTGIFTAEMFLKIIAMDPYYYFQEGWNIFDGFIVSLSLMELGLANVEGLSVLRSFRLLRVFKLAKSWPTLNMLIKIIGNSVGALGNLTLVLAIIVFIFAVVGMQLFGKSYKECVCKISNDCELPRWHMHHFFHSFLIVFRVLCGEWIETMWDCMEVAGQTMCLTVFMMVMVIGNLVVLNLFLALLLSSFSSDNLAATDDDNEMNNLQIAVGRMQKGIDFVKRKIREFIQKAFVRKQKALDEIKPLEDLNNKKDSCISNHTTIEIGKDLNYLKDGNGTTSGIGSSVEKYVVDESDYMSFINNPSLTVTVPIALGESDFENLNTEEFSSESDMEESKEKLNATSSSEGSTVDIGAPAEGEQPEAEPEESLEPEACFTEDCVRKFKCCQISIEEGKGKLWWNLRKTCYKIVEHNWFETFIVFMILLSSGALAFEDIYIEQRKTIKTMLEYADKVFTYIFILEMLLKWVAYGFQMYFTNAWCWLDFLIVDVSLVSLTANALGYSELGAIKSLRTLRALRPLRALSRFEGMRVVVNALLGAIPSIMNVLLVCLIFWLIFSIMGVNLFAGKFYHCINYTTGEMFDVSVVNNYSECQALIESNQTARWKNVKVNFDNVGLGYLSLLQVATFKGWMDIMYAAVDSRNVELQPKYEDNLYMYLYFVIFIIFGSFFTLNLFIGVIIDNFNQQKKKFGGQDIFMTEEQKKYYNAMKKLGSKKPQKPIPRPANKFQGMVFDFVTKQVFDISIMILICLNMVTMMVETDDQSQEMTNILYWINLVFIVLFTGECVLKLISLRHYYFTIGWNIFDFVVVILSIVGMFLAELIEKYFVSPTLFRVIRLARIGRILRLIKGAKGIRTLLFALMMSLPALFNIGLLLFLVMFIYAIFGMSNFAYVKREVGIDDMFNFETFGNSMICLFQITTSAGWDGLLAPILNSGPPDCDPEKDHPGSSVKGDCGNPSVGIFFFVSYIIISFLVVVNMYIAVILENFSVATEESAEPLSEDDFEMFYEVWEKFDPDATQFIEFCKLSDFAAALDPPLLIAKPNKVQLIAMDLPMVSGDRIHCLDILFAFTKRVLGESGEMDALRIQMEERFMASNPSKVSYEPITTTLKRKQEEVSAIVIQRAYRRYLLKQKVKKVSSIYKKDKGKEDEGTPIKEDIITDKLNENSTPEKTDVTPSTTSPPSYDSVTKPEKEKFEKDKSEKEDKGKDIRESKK

SMILES: Cc1nc(-c2ccc3c(c2)OCC32C(=O)N(Cc3ccccn3)c3ccccc32)no1 (stereo not shown) [Example 11.85, 6-(5-methyl-1,2,4-oxadiazol-3-yl)-1′-(pyridin-2-ylmethyl)spiro[1-benzofuran-3,3′-indol]-2′(1′H)-one]
- IC50 (sodium channel): 100 to 1000 nM
- Ki [1]: > 300 nM
- melting point: 147 to 148 °C
- inhibition at 10 µM (CYP3A4): < 50%

SMILES: NC1=N[C@H](O)[C@H]2[C@H]3O[C@]4(O)O[C@@H]([C@@H](O)[C@@]2(N1)[C@@H]4O)[C@]3(O)CO [TTX, tetrodotoxin]
- block of the increase in [14C] guanidine influx (Nav1.4): completely blocked using TTX.
- block of the increase in [14C] guanidine influx (Nav1.4 and 1.5): partially blocked by TTX at 100 nM
- block of the increase in [14C] guanidine influx (Nav1.9 and Nav1.7): background was partially blocked
- block of the increase in [14C] guanidine influx (Nav1.8): TTX partially blocked influx
- block of the increase in [14C] guanidine influx (Nav1.2): guanidine influx was completely

SMILES: CCN(CC)CC(=O)Nc1c(C)cccc1C [lidocaine]
- effect on ectopic activity and tactile allodynia [2]: suppress the ectopic activity and reverse the tactile allodynia
